According to patent publication US11840517B2, “Lappaconitine derivative with analgesic activity, and preparation and application thereof” (priority 2021, dated 2023):
Like-named read-outs stand apart in the source and are kept apart here.

How the values were obtained:
[1] = test system: Kunming mice; test: Analgesic activity by acetic acid-induced writhing method; type: in vivo; details: for inhibition in vivo at 10 mg/kg: Mus musculus, sc, read-out: Analgesia rate ± SEM (%); for analgesic activity (in words, Table 1): comment on Table 1
Method: The experimental animals were Kunming mice (male:female=1:1), weighed 22±2 g, which were provided by Chengdu dossy experimental animals Co., ltd., China. The mice were kept in the animal room of the School of Life Science and Engineering, Southwest Jiaotong University, where the animal room was set at a temperature of 23±2° C., a humidity of 55±5% and a photoperiod of 16:8 h (L:D). Before the experiment, the mice were freely fed for 2-3 days with water and feed to adapt to the new environment. Then, the mice were treated by water fasting for 12 h. 10 animals were allocated to each group to ensure that there are at least 6 sets of valid data in each group. The animal experiments were carried out in strict accordance with the national regulations on the management of experimental animals.
The compounds prepared in the examples provided herein and the positive control lappaconitine were all dissolved with 0.1 mol/L HCl according to the amount of the substance ratio of 1:1, and then diluted with physiological saline to a concentration to be determined. The samples to be tested were the compounds prepared the examples provided herein; the positive control was lappaconitine; and the blank control was physiological saline containing 0.1 mol/L HCl.
The animals in the control groups were subjected to the same treatment as those in the experimental group except that the samples to be test were replaced with physiological saline.
(§1) 10 mice were randomly selected, male:female=1:1, were placed in independent cages. Each mouse was injected subcutaneously with the sample solution mentioned above at a dose of 0.1 mL/10 g body weight. After 15 min, a 0.7% acetic acid solution was intraperitoneally injected. The number of writhing reactions in each mouse within 15 minutes was recorded. The group that the mice were injected with physiological saline subcutaneously was the blank group; the group that the mice were injected with the sample to be tested was the experimental group; and the group that the mice were injected with lappaconitine was the positive group. The analgesic activity was represented by a percentage of the reduced number of writhing compared to the blank group (writhing inhibition rate), which were specifically as follows: writhing inhibition rate (analgesic activity)=(average number of writhing times in the blank group-average number of writhing times in the experimental group)/average number of writhing times in the blank group×100%.

[2] = test system: Kunming mice; test: Median effective dose (ED50) determination, acetic acid-induced writhing; type: in vivo; details: for ED50: subcutaneous, writhing inhibition, Probit regression; for analgesic activity / ED50 compared with lappaconitine (in words): comment on Table 2
Method: as §1
The sample to be tested was dissolved with 0.1 mol/L HCl according to the amount of the substance ratio of 1:1, and diluted with physiological saline according to the proportional series to obtain at least 5 groups with different dose concentrations. The writhing inhibition rate of each dose group was tested according to the acetic acid-induced writhing method mentioned above. The obtained does-writhing inhibition data was entered into the statistical product and service solutions (SPSS) software (version 17.2), and the ED50 of the sample to be tested was calculated through the Probit regression method.

[3] = Median lethal dose (LD50) determination; type: in vivo, Kunming mice; details: both sexes, Kunming, mouse, in vivo, sc; subcutaneous, survival within 24 h, Probit regression
Method: (§2) The sample to be tested was dissolved with 0.1 mol/L HCl according to the amount of the substance ratio of 1:1, and diluted with physiological saline according to the required concentration. 10 mice in each group were randomly selected, half of which are male and half of which were female, and were placed in independent cages. Each mouse was injected subcutaneously with different sample solutions to be tested according to a dose of 0.1 mL/10 g body weight. In the preliminary toxicity experiment, the measured concentration was 100 mg/kg, and then based on the survival rate of the experimental animals in the preliminary experiment, the sample to be tested was set to at least 5 groups with different concentration dose according to the proportional series. The survival rate of mice within 24 h was recorded. The obtained dose-survival rate data was input into the SPSS software (version 17.2), and the LD50 of the sample was calculated according to the Probit regression method.

[4] = test system: Kunming mice; test: Median lethal dose (LD50) determination; type: in vivo
Method: as §2

[5] = Mus musculus, sc, read-out: ED50
[6] = Dosing concentration 10 mg/kg, subcutaneous, 15 min before i.p. 0.7% acetic acid, writhing inhibition vs blank group

| SMILES | inhibition in vivo at 10 mg/kg [1] | analgesic activity (in words, Table 1) [1] | ED50 [2, 5] | analgesic activity / ED50 compared with lappaconitine (in words) [2] | LD50 [3] | inhibition in vivo at 10 mg/kg [1, 6] | further results |
| --- | --- | --- | --- | --- | --- | --- | --- |
| CCN(CC)c1ccc(C(=O)Nc2ccccc2C(=O)O[C@@]23CC[C@H](OC)C45C2CC([C@H]4N(CC)C3)[C@@]2(O)C[C@H](OC)[C@H]3CC5[C@]2(O)[C@H]3OC)cc1 (some centres unmarked) [Compound 30] | 63.9 ± 5.09% | significant activity | 7.5 mg/kg | same order of magnitude as that of lappaconitine | 276 mg/kg |  |  |
| CCN1C[C@]2(OC(=O)c3ccccc3NS(=O)(=O)c3ccccn3)CC[C@H](OC)C34C2CC([C@@H]13)[C@@]1(O)C[C@H](OC)[C@H]2CC4[C@]1(O)[C@H]2OC (some centres unmarked) [Compound 3] | 71.2 ± 2.72% | significant activity | 4.7 mg/kg | same order of magnitude as that of lappaconitine | > 400 mg/kg |  |  |
| CCN1C[C@]2(OC(=O)c3ccccc3NC(=O)c3ccc(OC)cc3)CC[C@H](OC)C34C2CC([C@@H]13)[C@@]1(O)C[C@H](OC)[C@H]2CC4[C@]1(O)[C@H]2OC (some centres unmarked) [Compound 32] | 62.8 ± 5.77% | significant activity | 4.4 mg/kg | same order of magnitude as that of lappaconitine | 296 mg/kg |  |  |
| CCN1C[C@]2(OC(=O)c3ccccc3NC(=O)c3ccc(N(C)C)cc3)CC[C@H](OC)C34C2CC([C@@H]13)[C@@]1(O)C[C@H](OC)[C@H]2CC4[C@]1(O)[C@H]2OC (some centres unmarked) [Compound 5] | 62.1 ± 5.02% | significant activity | 6.1 mg/kg | same order of magnitude as that of lappaconitine | 300 mg/kg |  |  |
| CCN1C[C@]2(OC(=O)c3ccccc3NC(C)=O)CC[C@H](OC)[C@@]34[C@@H]2C[C@@H]([C@@H]13)[C@@]1(O)C[C@H](OC)[C@H]2C[C@@H]4[C@]1(O)[C@H]2OC [Lappaconitine] |  |  |  |  |  |  | Analgesia rate ± SEM (%) ([1]; Dosing concentration 3.5 mg/kg, subcutaneous, 15 min before i.p. 0.7% acetic acid, writhing inhibition vs blank group): 56.57 ± 6.57 %; experimental animal death from poisoning ([1]; dosing concentration of 10 mg/kg): more than half of the experimental animal death from poisoning; ED50 [2]: 3.5 mg/kg; LD50 ([4]; subcutaneous, survival within 24 h, Probit regression): 11.7 mg/kg |
| CCN1C[C@]2(OC(=O)c3ccccc3NC(=O)c3ccc(OC(C)C)cc3)CC[C@H](OC)[C@]34C1[C@H](CC23)[C@@]1(O)C[C@H](OC)[C@H]2CC4[C@]1(O)[C@H]2OC (some centres unmarked) [Compound 59] | 61.1 ± 5.52% | significant activity | 8.1 mg/kg | same order of magnitude as that of lappaconitine | 196 mg/kg |  |  |
| CCN1C[C@]2(OC(=O)c3ccccc3NC(=O)OC)CC[C@H](OC)C34C2CC([C@@H]13)[C@@]1(O)C[C@H](OC)[C@H]2CC4[C@]1(O)[C@H]2OC (some centres unmarked) [Compound 4] | 71.1 ± 5.97% | significant activity | 1.2 mg/kg | doubled compared with lappaconitine | 10 mg/kg |  | toxicity compared with lappaconitine (in words) ([4]; comment on Table 2): did not increase significantly |
| CCN1C[C@]2(OC(=O)c3ccccc3NC(=O)c3ccc(C(=O)OC)cc3)CC[C@H](OC)C3C2C[C@@H]([C@@H]1C)[C@@]1(O)CC(OC)[C@H]2CC3[C@]1(O)[C@H]2OC (some centres unmarked) [Compound 36] |  |  |  |  |  | 36.4 ± 9.54% |  |
| C=CCOC(=O)Nc1ccccc1C(=O)O[C@@]12CC[C@H](OC)C34C1CC([C@H]3N(CC)C2)[C@@]1(O)C[C@H](OC)[C@H]2CC4[C@]1(O)[C@H]2OC (some centres unmarked) [Compound 24] |  |  |  |  |  | 13.3 ± 9% |  |
| CCN1C[C@]2(OC(=O)c3ccccc3NS(=O)(=O)Cc3ccccc3)CC[C@H](OC)[C@@]34C2CC([C@@H]13)[C@@]1(O)C[C@H](OC)[C@H]2CC4[C@]1(O)[C@H]2OC (some centres unmarked) [Compound 9] |  |  |  |  |  | 43.8 ± 4.5% |  |
| CCN1C[C@]2(OC(=O)c3ccccc3NS(=O)(=O)c3ccccc3OC)CC[C@H](OC)C34C2CC([C@@H]13)[C@@]1(O)C[C@H](OC)[C@H]2CC4[C@]1(O)[C@H]2OC (some centres unmarked) [Compound 2] | 71.2 ± 3.8% | significant activity | 5.5 mg/kg | same order of magnitude as that of lappaconitine | 300 mg/kg |  |  |
| CCN1C[C@]2(OC(=O)c3ccccc3NS(=O)(=O)c3ccccc3)CC[C@H](OC)C34C2CC([C@@H]13)[C@@]1(O)C[C@H](OC)[C@H]2CC4[C@]1(O)[C@H]2OC (some centres unmarked) [Compound 1] | 84.3 ± 3.05% | significant activity | 6.1 mg/kg | same order of magnitude as that of lappaconitine | > 600 mg/kg |  |  |
| CCCCCCC(=O)Nc1ccccc1C(=O)O[C@@]12CC[C@H](OC)C34C1CC([C@H]3N(CC)C2)[C@@]1(O)C[C@H](OC)[C@H]2CC4[C@]1(O)[C@H]2OC (some centres unmarked) [Compound 34] |  |  |  |  |  | 54.2 ± 6.15% |  |
| CCN1C[C@]2(OC(=O)c3ccccc3NC(=O)c3ccc(Cl)s3)CC[C@H](OC)C3C2C[C@@H]([C@@H]1C)[C@@]1(O)CC(OC)[C@H]2CC3[C@]1(O)[C@H]2OC (some centres unmarked) [Compound 45] |  |  |  |  |  | 27.8 ± 5.83% |  |
| CCCOc1ccc(C(=O)Nc2ccccc2C(=O)O[C@@]23CC[C@H](OC)C45C2CC([C@H]4N(CC)C3)[C@@]2(O)C[C@H](OC)[C@H]3CC5[C@]2(O)[C@H]3OC)cc1 (some centres unmarked) [Compound 35] |  |  |  |  |  | 48.4 ± 6.08% |  |
| CCOc1ccc(C(=O)Nc2ccccc2C(=O)O[C@@]23CC[C@H](OC)C45C2CC([C@H]4N(CC)C3)[C@@]2(O)C[C@H](OC)[C@H]3CC5[C@]2(O)[C@H]3OC)cc1 (some centres unmarked) [Compound 31] | 62.8 ± 5.41% | significant activity | 6.6 mg/kg | same order of magnitude as that of lappaconitine | 315 mg/kg |  |  |
